This assay concerns the target T1, MAGL (Homo sapiens, UniProt Q99685).
T1 sequence (Q99685 1-303): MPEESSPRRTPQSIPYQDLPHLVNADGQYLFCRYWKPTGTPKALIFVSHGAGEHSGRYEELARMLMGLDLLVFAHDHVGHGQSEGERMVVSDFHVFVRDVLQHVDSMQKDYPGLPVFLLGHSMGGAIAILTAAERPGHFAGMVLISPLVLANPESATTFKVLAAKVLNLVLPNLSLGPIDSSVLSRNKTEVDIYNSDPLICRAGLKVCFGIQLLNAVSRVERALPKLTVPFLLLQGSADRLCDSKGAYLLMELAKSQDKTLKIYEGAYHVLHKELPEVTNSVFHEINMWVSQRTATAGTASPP
Kind of assay: MAGL inhibition, 2-AG assay (hydrolysis of 2-arachidonoylglycerol, arachidonic acid by mass spectrometry). In kind it is biochemical. The following applies: 2-AG assay (footnote [b]). The essentials: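 Human MAGL […] was preincubated 15 min at RT with compound ([…], 3-fold steps) in 50 mM Tris, 1 mM EDTA, 0.01% Tween. 2-AG (8 μM) was then added for 30 min at RT. Arachidonic acid was quantified by RapidFire SPE–triple quadrupole MS in negative ESI as its ratio to a d8-arachidonic acid standard.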

Consider 27 compounds from patent US20230117324A1, “OXAZINE MONOACYLGLYCEROL LIPASE (MAGL) INHIBITORS” (Hoffmann-La Roche Inc., priority 2018, published 2023).

Structures are written as SMILES. pIC50: −log10 of the molar value.

A word on the pIC50: it is the negative decadic logarithm of the IC50, by convention in mol/L. `O=C1CO[C@H]2CCN(C(=O)N3CC(c4ccc(N5CCC(C(F)(F)F)C5)cc4)C3)C[C@H]2N1` (stereo partly drawn) [Example 163, (4aR,8aS)-6-(3-(4-(3-(Trifluoromethyl)pyrrolidin-1-yl)phenyl)azetidine-1-carbonyl)hexahydro-2H-pyrido[4,3-b][1,4]oxazin-3(4H)-one] had a pIC50 of 9.15. The same measure for `O=C1CO[C@H]2CCN(C(=O)N3CCC(c4cccc(Br)c4)C3)C[C@H]2N1` (stereo partly drawn) [Example 164, (4aR,8aS)-6-(3-(3-Bromophenyl)pyrrolidine-1-carbonyl)hexahydro-2H-pyrido[4,3-b][1,4]oxazin-3(4H)-one]: 7.09; for `CCC1CCCN1c1ccc(C2CN(C(=O)N3CC[C@@H]4OCC(=O)N[C@@H]4C3)C2)cc1` (stereo partly drawn) [Example 165, (4aR,8aS)-6-[3-[4-(2-Ethylpyrrolidin-1-yl)phenyl]azetidine-1-carbonyl]-4,4a,5,7,8,8a-hexahydropyrido[4,3-b][1,4]oxazin-3-one]: 9.40; for `N#Cc1cccc(Cl)c1-c1ccc(C2CN(C(=O)N3CC[C@@H]4OCC(=O)N[C@@H]4C3)C2)cc1` [Example 166, 2-[4-[1-[(4aR,8aS)-3-Oxo-4,4a,5,7,8,8a-hexahydropyrido[4,3-b][1,4]oxazine-6-carbonyl]azetidin-3-yl]phenyl]-3-chloro-benzonitrile]: 10.00. The same measure for `O=C1CO[C@H]2CCN(C(=O)N3CC(c4ccc(N5CCCC5C5CC5)cc4)C3)C[C@H]2N1` (stereo partly drawn) [Example 167, (4aR,8aS)-6-(3-(4-(2-Cyclopropylpyrrolidin-1-yl)phenyl)azetidine-1-carbonyl)hexahydro-2H-pyrido[4,3-b][1,4]oxazin-3(4H)-one]: 9.70; for `O=C1CO[C@H]2CCN(C(=O)N3CCN(c4ccc(Br)cc4)CC3)C[C@H]2N1` [Example 168, (4aR,8aS)-6-(4-(4-Bromophenyl)piperazine-1-carbonyl)hexahydro-2H-pyrido[4,3-b][1,4]oxazin-3(4H)-one]: 5.43; for `O=C1CO[C@H]2CCN(C(=O)N3CCC(c4ccc(-c5ccc(Cl)cc5Cl)cc4)CC3)C[C@H]2N1` [Example 169, (4aR,8aS)-6-(4-(2′,4′-Dichloro-[1,1′-biphenyl]-4-yl)piperidine-1-carbonyl)hexahydro-2H-pyrido[4,3-b][1,4]oxazin-3(4H)-one]: 8.40. The same measure for `O=C1CO[C@H]2CCN(C(=O)N3CC(c4ccc(N5CC6CC6C5)cc4)C3)C[C@H]2N1` (stereo partly drawn) [Example 170, (4aR,8aS)-6-(3-(4-(3-Azabicyclo[3.1.0]hexan-3-yl)phenyl)azetidine-1-carbonyl)hexahydro-2H-pyrido[4,3-b][1,4]oxazin-3(4H)-one]: 8.70.

`O=C1CO[C@H]2CCN(C(=O)N3CC(c4cccc(OC(F)(F)F)c4)C3)C[C@H]2N1` [Example 171, (4aR,8aS)-6-(3-(3-(Trifluoromethoxy)phenyl)azetidine-1-carbonyl)hexahydro-2H-pyrido[4,3-b][1,4]oxazin-3(4H)-one] showed a pIC50 of 7.36.

`O=C1CO[C@H]2CCN(C(=O)N3CC(c4ccc(N5CC(OCC(F)(F)F)C5)cc4)C3)C[C@H]2N1` [Example 172, (4aR,8aS)-6-(3-(4-(3-(2,2,2-Trifluoroethoxy)azetidin-1-yl)phenyl)azetidine-1-carbonyl)hexahydro-2H-pyrido[4,3-b][1,4]oxazin-3(4H)-one]: the pIC50 is 8.40. Then `CS(=O)(=O)c1cc(Cl)ccc1-c1ccc(C2CN(C(=O)N3CC[C@@H]4OCC(=O)N[C@@H]4C3)C2)cc1` [Example 173, (4aR,8aS)-6-(3-(4′-Chloro-2′-(methylsulfonyl)-[1,1′-biphenyl]-4-yl)azetidine-1-carbonyl)hexahydro-2H-pyrido[4,3-b][1,4]oxazin-3(4H)-one], with 9.40; and `O=C1CO[C@H]2CCN(C(=O)N3CC(c4ccc(N5CCCC5C(F)(F)F)nc4)C3)C[C@H]2N1` (stereo partly drawn) [Example 174, (4aR,8aS)-6-(3-(6-(2-(Trifluoromethyl)pyrrolidin-1-yl)pyridin-3-yl)azetidine-1-carbonyl)hexahydro-2H-pyrido[4,3-b][1,4]oxazin-3(4H)-one], with 8.15. The same measure for `O=C1CO[C@H]2CCN(C(=O)N3CC(c4ccc(N5CCC6(CC6)C5)cc4)C3)C[C@H]2N1` [Example 179, (4aR,8aS)-6-(3-(4-(5-Azaspiro[2.4]heptan-5-yl)phenyl)azetidine-1-carbonyl)hexahydro-2H-pyrido[4,3-b][1,4]oxazin-3(4H)-one]: 9.00; for `O=C1CO[C@H]2CCN(C(=O)N3CC(c4ccc(S(F)(F)(F)(F)F)cc4)C3)C[C@H]2N1` [Example 180, (4aR,8aS)-6-(3-(4-(Pentafluoro-16-sulfaneyl)phenyl)azetidine-1-carbonyl)hexahydro-2H-pyrido[4,3-b][1,4]oxazin-3(4H)-one]: 8.05. The same measure for `O=C1CO[C@H]2CCN(C(=O)N3CC(c4ccc(Cl)cn4)C3)C[C@H]2N1` [Example 181, (4aR,8aS)-6-(3-(5-Chloropyridin-2-yl)azetidine-1-carbonyl)hexahydro-2H-pyrido[4,3-b][1,4]oxazin-3(4H)-one]: 6.23; for `O=C1CO[C@H]2CCN(C(=O)N3CC(c4ccc(OC(F)(F)F)cc4F)C3)C[C@H]2N1` [Example 182, (4aR,8aS)-6-(3-(2-Fluoro-4-(trifluoromethoxy)phenyl)azetidine-1-carbonyl)hexahydro-2H-pyrido[4,3-b][1,4]oxazin-3(4H)-one]: 8.10. For `COc1ccc(C2CN(C(=O)N3CC[C@@H]4OCC(=O)N[C@@H]4C3)C2)cn1` [Example 183, (4aR,8aS)-6-[3-(6-Methoxypyridin-3-yl)azetidine-1-carbonyl]-4,4a,5,7,8,8a-hexahydropyrido[4,3-b][1,4]oxazin-3-one], the pIC50 is 5.80.

In turn, `O=C1CO[C@H]2CCN(C(=O)N3CCC(c4ccc(Br)cc4)C3)C[C@H]2N1` (stereo partly drawn) [Example 184, (4aR,8aS)-6-(3-(4-Bromophenyl)pyrrolidine-1-carbonyl)hexahydro-2H-pyrido[4,3-b][1,4]oxazin-3(4H)-one] gave a pIC50 of 6.84.

`O=C1CO[C@H]2CCN(C(=O)N3CC(c4ccccc4)C3)C[C@H]2N1` [Example 185, (4aR,8aS)-6-(3-Phenylazetidine-1-carbonyl)hexahydro-2H-pyrido[4,3-b][1,4]oxazin-3(4H)-one] gave a pIC50 of 6.86. Then `O=C1CO[C@H]2CCN(C(=O)N3CCC(c4ccccc4)CC3)C[C@H]2N1` [Example 186, (4aR,8aS)-6-(4-Phenylpiperidine-1-carbonyl)hexahydro-2H-pyrido[4,3-b][1,4]oxazin-3(4H)-one], with 6.00.

The compound `O=C1CO[C@H]2CCN(C(=O)N3CC(c4ccc(CC(F)(F)F)cc4)C3)C[C@H]2N1` [Example 187, (4aR,8aS)-6-[3-[4-(2,2,2-Trifluoroethyl)phenyl]azetidine-1-carbonyl]-4,4a,5,7,8,8a-hexahydropyrido[4,3-b][1,4]oxazin-3-one] gave a pIC50 of 9.00.

`O=C1CO[C@H]2CCN(C(=O)N3CC(c4ccc(C5(C(F)(F)F)CC5)cc4)C3)C[C@H]2N1` [Example 188, (4aR,8aS)-6-[3-[4-[1-(Trifluoromethyl)cyclopropyl]phenyl]azetidine-1-carbonyl]-4,4a,5,7,8,8a-hexahydropyrido[4,3-b][1,4]oxazin-3-one] showed a negative-log IC50 (pIC50) of 8.40. As to `O=C1CO[C@H]2CCN(C(=O)N3CC(c4ccc(N5CC6(C5)CC(F)(F)C6)cc4)C3)C[C@H]2N1` [Example 191, (4aR,8aS)-6-[3-[4-(6,6-Difluoro-2-azaspiro[3.3]heptan-2-yl)phenyl]azetidine-1-carbonyl]-4,4a,5,7,8,8a-hexahydropyrido[4,3-b][1,4]oxazin-3-one], the pIC50 is 9.30.

`O=C1CO[C@H]2CCN(C(=O)N3CC(c4ccc(N5CC6CCC(C5)O6)cc4)C3)C[C@H]2N1` [Example 192, (4aR,8aS)-6-(3-(4-(8-Oxa-3-azabicyclo[3.2.1]octan-3-yl)phenyl)azetidine-1-carbonyl)hexahydro-2H-pyrido[4,3-b][1,4]oxazin-3(4H)-one] had a pIC50 of 8.10. The same measure for `O=C1CO[C@H]2CCN(C(=O)N3CC(c4ccc(-c5ccc(Cl)cc5Cl)cn4)C3)C[C@H]2N1` [Example 193, (4aR,8aS)-6-(3-(5-(2,4-Dichlorophenyl)pyridin-2-yl)azetidine-1-carbonyl)hexahydro-2H-pyrido[4,3-b][1,4]oxazin-3(4H)-one]: 9.00. The same measure for `O=C1CO[C@H]2CCN(C(=O)N3CC(c4ccc(N5CCCCC5)cc4)C3)C[C@H]2N1` [Example 196, (4aR,8aS)-6-[3-[4-(1-Piperidyl)phenyl]azetidine-1-carbonyl]-4,4a,5,7,8,8a-hexahydropyrido[4,3-b][1,4]oxazin-3-one]: 8.70. The same measure for `CC1(O)CN(c2ccc(C3CN(C(=O)N4CC[C@@H]5OCC(=O)N[C@@H]5C4)C3)cc2)C1` [Example 199, (4aR,8aS)-6-[3-[4-(3-Hydroxy-3-methylazetidin-1-yl)phenyl]azetidine-1-carbonyl]-4,4a,5,7,8,8a-hexahydropyrido[4,3-b][1,4]oxazin-3-one]: 6.56.
